Literature values as cited in patent US12239707B2, “Photodynamic compositions and methods of use” (MT RESEARCH, LLC, priority 2018, dated 2025).

Settings: taken orally; 95% remains intraluminal

COC(=O)c1ccc2c(c1)NC(=O)/C2=C(\Nc1ccc(N(C)C(=O)CN2CCN(C)CC2)cc1)c1ccccc1 [nintedanib]
fraction of nintedanib absorbed: 5%
